The source of these data is patent EP0642787A2, “Cessation of tobacco use” (ELI LILLY AND COMPANY, priority 1993, dated 1995).

SMILES strings stand for the structures. Where only a bound is given, the exact number is not on record here.

The target of assay [1] is 5HT1A receptor (Homo sapiens, UniProt P08908). As to conditions: partial agonist; cited from earlier work.
For assay [2], the system named is 5HT1A receptor. Briefly: Serotonin syndrome test (antagonism of 8-OH-DPAT-induced signs). The assay is classed as in vivo, rats. The note with it: 4 point scale 0-3; for FBP score / LLR score / lower lip retraction (LLR) score / flat body posture (FBP) score: 8-OH-DPAT alone scores 3. As to the method: Adult male rats are placed singly in clear plastic cages for behavioral observations. Preferably, the cages have metal screen lids and fresh sawdust covering the floor. The animals are adapted to the cages for a short period, and then the compounds to be tested are administered at doses and route determined by the experimenter, based on the probable potency of the test compounds. After 15 minutes, each rat is then given a subcutaneous injection of 0.1 mg/kg of 8-hydroxy-2-dipropylaminotetralin (8-OH-DPAT). Fifteen minutes after administration of the 8-OH-DPAT, the animals are evaluated for evidence of the following signs: reciprocal forepaw treading; Straub tail (rigid or corkscrew); lateral head weaving; hind limb abduction; resting tremor, especially of the head and forepaws; lower-lip retraction; and flat-body posture.
Those signs are produced by 8-OH-DPAT, and the administration of 5HT1A antagonists is able to block or greatly attenuate the appearance of the signs.

Assay [3] has as its system 5HT1A receptor. The description is as above. The assay is classed as in vivo, rats. As to conditions: exception at 1.0 or 10 mg/kg s.c. (dose not specified); 4 point scale 0-3.
The mark [4] stands for this setting: 3 mg/kg test compound s.c., then 8-OH-DPAT 0.1 mg/kg s.c.

Sequence of 5HT1A receptor (Homo sapiens, UniProt P08908) (P08908 whole entry): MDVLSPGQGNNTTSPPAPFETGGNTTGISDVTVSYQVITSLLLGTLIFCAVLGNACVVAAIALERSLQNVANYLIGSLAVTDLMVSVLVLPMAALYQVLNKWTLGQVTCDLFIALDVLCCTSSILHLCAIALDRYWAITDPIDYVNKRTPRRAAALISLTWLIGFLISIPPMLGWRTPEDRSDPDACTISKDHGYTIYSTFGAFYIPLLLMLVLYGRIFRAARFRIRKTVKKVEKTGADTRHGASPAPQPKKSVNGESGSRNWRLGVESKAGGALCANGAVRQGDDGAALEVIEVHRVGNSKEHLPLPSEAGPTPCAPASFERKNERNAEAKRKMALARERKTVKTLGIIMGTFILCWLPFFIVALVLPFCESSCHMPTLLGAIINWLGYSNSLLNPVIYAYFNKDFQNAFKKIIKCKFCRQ

In the case of `O=C1CC2(CCCC2)CC(=O)N1CCCCN1CCN(c2ncccn2)CC1` [Buspirone], the “antagonistic activity at the 5HT1A receptor” value in assay [1] is listed as “about 30%”.
`O=C(O)C(=O)O.OC(CNCCCCc1ccccc1)COc1cccc2[nH]ccc12` (stereo not shown) [1-(4-indolyloxy)-3-(4-phenylbutylamino)-2-propanol, oxalate salt]: the FBP score in assay [2] (10 mg/kg test compound s.c.) came out at 1.25. In assay [2] (10 mg/kg test compound s.c., score quickly declined from its peak), the “peak LLR score” value is reported as 2.
Consider `OC(CNC1CCCCCC1)COc1cccc2[nH]ccc12` (stereo not shown) [1-(4-indolyloxy)-3-cycloheptylamino-2-propanol], for which the LLR score in assay [2] (1 mg/kg test compound s.c.) is at most 1.75; in assay [2] (10 mg/kg test compound s.c.), 0. The “lower lip retraction (LLR) score” value in assay [2] (setting [4]) is at most 1.75. Besides, the FBP score entry in assay [2] (doses of 1 mg/kg and above s.c.) is “below 1”.
With `OC(CN[C@@H]1C[C@H]2CC[C@@H]1C2)COc1cccc2[nH]ccc12` (relative stereo) [(exo)-1-(4-indolyloxy)-3-norbornylamino-2-propanol], the LLR score in assay [2] (1 mg/kg test compound s.c.) and in assay [2] (10 mg/kg test compound s.c.) was at most 1 in each case. Also, the FBP score in assay [2] (1.0 mg/kg test compound s.c.) and in assay [2] (10 mg/kg test compound s.c.) was at most 0.5 each time. For the same molecule, the “LLR score at 20 minutes after administration of 8-OH-DPAT” value in assay [3] is 1.25.
Take `O=C(O)CCC(=O)O.O[C@@H](CNC1CCCCC1)COc1cccc2[nH]ccc12` [(S)-(-)-1-(4-indolyloxy)-3-cyclohexylamino-2-propanol, butanedioate salt]: in assay [2] (0.3 mg/kg test compound s.c.), the “flat body posture (FBP) score” value was “below 2” and the “lower lip retraction (LLR) score” value was “below 2”. Besides, in assay [2] (setting [4]), the “flat body posture (FBP) score” value is recorded as “completely abolished” and the “lower lip retraction (LLR) score” value is recorded as “completely abolished”.
